Test results published in patent US20190307754A1, “PDE9 INHIBITORS FOR TREATMENT OF PERIPHERAL DISEASES” (IMARA, INC., priority 2016, published 2019).
“And” between values parts separate entries of the source, which are not always exact repeats. Identical values can stand only once. Like-named read-outs stand apart in the source and are kept apart here.

Tests used:
PDE1 = PDE1 inhibition assay; assay type: biochemical
Protocol: Reactions were initiated by addition of the cyclic nucleotide substrate, and reactions were allowed to proceed for 1 h at room temperature before being terminated through mixing with 20 μL (0.2 mg) yttrium silicate SPA beads (PerkinElmer).

[1] = test system: K562 erythroleukemic cells; assay: cGMP in cultured K562 cells; assay type: cell-based; settings: 16 hours
Protocol: Hydroxyurea was included as a comparator as it is currently the only FDA approved treatment for this disease (Charache et al., N Engl J Med., 332(20):1317-22. (1995)). One of the proposed mechanisms of action of HU in SCD is that it may generate NO and modulation of intracellular levels of the NO second messenger, cGMP, may represent an effective and cell-specific approach for amplifying intracellular NO-dependent signaling.
K562 cells were cultured at 37° C. in IMDM® to which the required concentrations of test items or dimethyl sulfoxide (DMSO; negative Control) had been added. Plated cells were maintained at 37° C. for 16 hours at the end of which the amount of cGMP was detected by enzyme immunoassay.

[2] = test system: K562 erythroleukemic cells; assay: HbF in cultured K562 cells; assay type: cell-based; settings: 3 days
Protocol: K562 cells were cultured at 37° C. in IMDM® to which the required concentrations of test items or DMSO (negative control) had been added. Plated cells were maintained at 37° C. for 3 days at the end of which the presence of HbF within cells was detected by flow cytometry.

Han Wistar Rats = assay: Neurofunctional study in Han Wistar rats; assay type: in vivo, rat
Protocol: (§1) The safety pharmacology assessment of Compound P3.1 included an in vitro hERG assay, neurofunctional and respiratory studies in rats, and a cardiovascular study in beagle dogs.
Single oral doses of 250, 500, and 1000 mg/kg Compound P3.1 in Han Wistar Rats had no effect on clinical observations, home cage observations, handheld observations, or body temperatures.

conscious dogs = assay: Cardiovascular study in beagle dogs; assay type: in vivo, dog
Protocol: as §1
In a cardiovascular study conducted in 4 dogs, treatments were performed by oral gavage according to a crossover design after allowing a minimum washout period of 48 hours. In conscious dogs, Compound P3.1 at doses of 10 and 25 mg/kg had no effect on arterial blood pressure, heart rate, body temperature, cardiac conduction times, ventricular repolarization duration, QT variability, or ST segment.

[3] = Pharmacokinetics in mice and rats (statements for both species); assay type: in vivo; settings: for half-life: read-out: elimination half-life (converted)
Protocol: The PK evaluation of Compound P3.1 included Absorption, Distribution, Metabolism, and Excretion (ADME) studies, as well as assessment for CYP enzyme inhibition.
(§2) Blood samples were taken at 2 minutes (IV only), then 8, 15, 30 minutes, and 1, 2, 4, 8, and 24 hours after dosing and analyzed for key PK parameters. In the rats, brain samples were taken at 24 hours and analyzed for Compound P3.1. To evaluate the penetration of Compound P3.1 across the blood-brain barrier (BBB), 10 additional rats received IV Compound P3.1 3 mg/kg and plasma and brain concentrations of Compound P3.1 were determined from 2 animals at 15 minutes, 30 minutes and 1, 2, and 4 hours after dosing.

[4] = Brain and plasma concentrations after single IV dose in rat; assay type: in vivo; settings: for Mean Plasma/Brain Ratio / Concentration Brain / Concentration Plasma / Plasma/Brain Ratio: 3 mg/kg IV; for Concentration Brain / Concentration Plasma / Plasma/Brain Ratio: individual animals, 3 mg/kg
Protocol: as §2

[5] = Plasma protein binding, mouse; assay type: in vitro ADME; settings: read-out: mean plasma fraction bound (converted)
[6] = Plasma protein binding, monkey; assay type: in vitro ADME; settings: read-out: mean plasma fraction bound (converted)
[7] = Plasma protein binding, humans; assay type: in vitro ADME; settings: human, read-out: mean plasma fraction bound (converted)
CYP3A4 = assay: CYP induction, CYP3A4; assay type: in vitro ADME
in vivo = settings: rat, 250 mg/kg/day
Protocol: Animals were observed daily from the start of the dosing and body weights and food intake were recorded at regular intervals. Blood samples were collected from a subset of animals in each group at 6 time points on Day 7 for TK evaluation.

rat = assay: Rat female fertility study; assay type: in vivo; settings: female rat, 25, 100, or 200 mg/kg/d oral gavage
Protocol: In a rat female fertility study, animal groups were given 0, 25, 100, or 200 mg/kg/d oral gavage of Compound P3.1. No treatment-related clinical signs were observed. […] There were no macroscopic necropsy findings that indicated an effect of Compound P3.1 administration.

[8] = Bacterial reverse mutation assay; assay type: cell-based
Source text: The genotoxicity evaluation of Compound P3.1 consisted of a bacterial reverse mutation assay, a chromosome aberration study, and a in vivo rat micronucleus study. Compound P3.1 was negative in all 3 assays.

[9] = test system: CD34+ derived red blood cells from SCD subjects; settings: 10 μM Compound P3.1, 5 days
[10] = test system: 7 key CYP enzyme isoforms; assay: CYP enzyme inhibition in human liver microsomes; settings: up through 100 μM

C[C@@H]1CN(Cc2ncccn2)C[C@H]1c1cn2c(C3CCOCC3)ncc2c(=O)[nH]1 (single isomer, unassigned) [Compound P3.1]
IC50 (PDE1): 3000 nM | cGMP concentration at 1 μM compared with 100 μM HU ([1]; 1 μM): approximately the same value elicited by 100 μM HU | cGMP level ([1]; 10 μM): 12.61 pg/mg | effect on cGMP levels [1]: dose-dependent and statistically significant increases in cGMP levels | HbF positive cells ([2]; 1 μM): 68.7% | HbF positive cells ([2]; 3 μM): 75.6% | HbF positive cells ([2]; 10 μM): 85.6% | adverse finding (Han Wistar Rats; >500 mg/kg, 0.5 and 24 hours post dosing): increased incidence of no visible-approach response | non-adverse findings at 250 mg/kg (Han Wistar Rats; single oral 250 mg/kg): transient decrease in sensory response (approach response) | non-adverse findings at 500 and 1000 mg/kg (Han Wistar Rats; single oral 500 and 1000 mg/kg): decreases in body weight/weight gain, motor activity (number of rears), and sensory response (tail pinch response) | clinical, home cage, handheld observations, body temperatures (Han Wistar Rats; single oral doses of 250, 500, and 1000 mg/kg): no effect | cardiovascular effects (conscious dogs; oral gavage 75 mg/kg): induced tachycardia as well as a slight, progressive and delayed decrease in blood pressure and shortened conduction times | arterial blood pressure, heart rate, body temperature, conduction times, repolarization, QT variability, ST segment (conscious dogs; oral gavage 10 and 25 mg/kg): no effect | plasma concentrations by 24 hours ([3]; 10 mg/kg oral, both species): below the lower limit of quantification (LLOQ) | Tmax ([3]; CD1 (mouse), Sprague Dawley (rat), mouse, rat, plasma, 10 mg/kg, oral, mice and rats, read-out: time of maximum concentration (Tmax)): 0.5 to 1 h | half-life ([3]; CD1 (mouse), Sprague Dawley (rat), mouse, rat, plasma, oral, intravenous, mice and rats): < 3 h | half-life ([3]; CD1 (mouse), Sprague Dawley (rat), mouse, rat, plasma, other: oral and intravenous (both routes), mice and rats): ~3 h | plasma concentration by 24 hours ([3]; IV, both species): below the LLOQ | Mean Plasma/Brain Ratio ([4]; 0.25 h post dose): 20.2 | Concentration Brain ([4]; 0.25 h post dose): 111 and 112 | Concentration Plasma ([4]; 0.25 h post dose): 2400 and 2110 | Plasma/Brain Ratio ([4]; 0.25 h post dose): 21.6 and 18.8 | Mean Plasma/Brain Ratio ([4]; 0.5 h post dose): 25.1 | Concentration Brain ([4]; 0.5 h post dose): 82.5 and 50.7 | Concentration Plasma ([4]; 0.5 h post dose): 1790 and 1450 | Plasma/Brain Ratio ([4]; 0.5 h post dose): 21.7 and 28.6 | Mean Plasma/Brain Ratio ([4]; 1 h post dose): 23.1 | Concentration Brain ([4]; 1 h post dose): 28.6 and 44.1 | Concentration Plasma ([4]; 1 h post dose): 647 and 1040 | Plasma/Brain Ratio ([4]; 1 h post dose): 22.6 and 23.6 | Mean Plasma/Brain Ratio ([4]; 2 h post dose): 33.1 | Concentration Brain ([4]; 2 h post dose): 8.88 and 5.34 | Concentration Plasma ([4]; 2 h post dose): 245 and 206 | Plasma/Brain Ratio ([4]; 2 h post dose): 27.6 and 38.6 | Concentration Plasma ([4]; 4 h post dose): 59.8 and 107 | brain concentration at 4 hours postdose ([4]; IV dosing, 4 hours postdose): no longer detectable in the brain | fraction unbound [5]: 0.767 | fraction unbound [6]: 0.814 | fraction unbound [7]: 0.686 | induction of CYP3A4 (CYP3A4): potential for induction | AUC0-24 (in vivo; male, Crl:WI(Han), po): 198 µg·h/mL | Cmax (in vivo; male, Crl:WI(Han), po): 18800 ng/mL | AUC(0-t) (in vivo; male, Crl:WI(Han), po, AUC0-24): 226 µg·h/mL | Cmax (in vivo; male, Crl:WI(Han), po, Cmax): 16500 ng/mL | Cmax and systemic exposure of Compound P3.1 in isolation vs in combination with HU (in vivo): similar | early embryonic development (rat): no adverse effect | pre- or post-implantation loss (rat): no effect | genotoxicity, bacterial reverse mutation assay [8]: negative | amount of HbF within cells (mean MFI) [9]: 10,840 | mean MFI of HbF relative to controls [9]: 145% | percentage of HbF positive CD36+ cells (mean) ([9]; 5 SCD subjects): 24.6% | direct inhibition of 7 key CYP enzyme isoforms [10]: no potential for direct inhibition
